Test: Intravenous and intraduodenal (bolus) bioavailability of zanamivir from Capmul MCM L8 25, 50, 75 µL (Example 7)
Conditions: male, Sprague-Dawley, rat, in vivo; for concentration at 0.83 hr / concentration at 1 hr / concentration at 1.5 hr / concentration at 2 hr / concentration at 0.25 hr / concentration at 0.5 hr / concentration at 0.033 hr / concentration at 0.083 hr: 1.5 mg/animal, Plasma concentration; for clearance / half-life / Vd / Tmax: 1.5 mg; for clearance: CL; for half-life: T1/2, IV 1.5 mg/animal; for Vd: Vss
Source text: Male Sprague-Dawley rats (Hilltop Labs), 3 animals per treatment group, 250-350 grams in weight, were fitted with a jugular vein cannula (JVC). Animals intended for intraduodenal dosing were also fitted with one or more intraduodenal cannula (IDC) and those intended for intravenous dosing were fitted with a second JVC. Food was withheld from the animals for a minimum of twelve hours prior to test article administration and was returned approximately four hours post-dose. Water was supplied ad libitum.
Intraduodenal doses composed of 1.5 mg of zanamivir and varying amounts of an enhancer (glycerol or Capmul MCM L8) were injected directly into the duodenum via the IDC. Intravenous dosing was conducted by the injection of 1.5 mg of zanamivir in 200 μL of PBS through a JVC. For some experiments, the absorption enhancer was administered intraduodenally 2 hr prior to administering 1.5 mg of zanamivir in PBS through a second IDC. Each intraduodenal dose was followed with the introduction of a small air bubble (˜10 μL) in the cannula followed by a flush of 125 μL of PBS to ensure the dose was given in full. The volume of PBS used for cannula flush was consistent across the treatment groups. The cannula was tied to prevent the PBS remaining in the cannula from entering the duodenum.
Blood samples collected via the JVC, approximately 400 μL each, were obtained at 2 min, 5 min, 15 min, 30 min, 60 min, 90 min, and 120 min, with sodium heparin used as an anti-coagulant. Each sample was placed into a chilled tube containing the anticoagulant and kept on ice until centrifugation at 4° C., 3,000×g, for 5 min. The plasma supernatants were stored at −70° C. until LC-MS analysis.
Dosing solution samples were assayed by LC-MS/MS using electrospray ionization. The chromatographic system consisted of Perkin Elmer series 200 micropumps and autosampler equipped with a Waters Atlantic® HILIC Silica 3 μM, 2.1×50 mm column. The mass spectrometer was a PE Sciex API 4000 with electrospray interface in multiple reaction monitoring mode. […] Stock solutions (1 mg/mL zanamivir) were prepared in water. Standards (eight concentrations) were prepared in the appropriate matched matrix (HBSSg or Sprague-Dawley rat plasma containing sodium heparin) and diluted 50-fold with methanol. Experimental samples were treated identically.
Standards and samples were prepared in Sprague Dawley rat plasma containing sodium heparin as an anticoagulant. An eight-point calibration curve was prepared at concentrations of 1000, 750, 500, 250, 100, 50, 25, and 10 ng/mL by serial dilution. Standard samples were treated identically to the study samples.
Plasma samples were extracted by protein precipitation in methanol.
In this example, the bioavailability of Zanamivir was evaluated after intraduodenal doses in male Sprague-Dawley rats. The test compound was dosed at 1.5 mg/animal through intravenous and intraduodenal routes from normal saline and Capmul MCM L8 formulations, respectively. Plasma levels were determined by LC-MS/MS analysis. Pharmacokinetic parameters were estimated by a non-compartmental model using WinNonlin v5.2.1 software.
Each ID dose in groups 2-4 will be followed with a small air bubble ([…]) and a flush of […] of PBS to insure the dose is given in full. The volume of PBS used for cannulae flush will be maintained consistent across the animals and the treatment groups. The cannula will then be tied to help prevent the PBS remaining in the cannula from entering the duodenum.

[1] = ID bolus 1.5 mg/animal, 50 µL Capmul MCM L8, Ex.7, individual rats
[2] = ID bolus 1.5 mg/animal, 50 µL Capmul MCM L8, Ex.7, mean
[3] = intraduodenal bolus, 75 μL Capmul MCM L8, mean of 3 rats
[4] = intraduodenal bolus, 75 μL Capmul MCM L8, rat 963
[5] = intraduodenal bolus, 75 μL Capmul MCM L8, rat 964
[6] = intraduodenal bolus, 75 μL Capmul MCM L8, rat 965
[7] = iv, IV 1.5 mg/animal, Normal Saline, Ex.7, individual rats
[8] = iv, IV 1.5 mg/animal, Normal Saline, Ex.7, mean

CC(=O)NC1C(NC(=N)N)C=C(C(=O)O)OC1C(O)C(O)CO (stereo not drawn) [Zanamivir, 5-acetamido-4-guanidino-6-(1,2,3-trihydroxypropyl)-5,6-dihydro-4H-pyran-2-carboxylic acid]
concentration at 0.83 hr [1]: 2620 ng/mL | concentration at 0.83 hr [2]: 2120 ng/mL | concentration at 1 hr [1]: 695 ng/mL | concentration at 1 hr [2]: 651 ng/mL | concentration at 1.5 hr [1]: 216 ng/mL | concentration at 1.5 hr [2]: 244 ng/mL | concentration at 2 hr [1]: 103 ng/mL | concentration at 2 hr [2]: 120 ng/mL | concentration at 0.25 hr [3]: 2390 ng/mL | concentration at 0.25 hr [4]: 2560 ng/mL | concentration at 0.25 hr [5]: 1710 ng/mL | concentration at 0.25 hr [6]: 2890 ng/mL | concentration at 0.5 hr [3]: 1720 ng/mL | concentration at 0.5 hr [4]: 1820 ng/mL | concentration at 0.5 hr [5]: 1130 ng/mL | concentration at 0.5 hr [6]: 2200 ng/mL | concentration at 0.83 hr [3]: 2570 ng/mL | concentration at 0.83 hr [4]: 2940 ng/mL | concentration at 0.83 hr [5]: 1690 ng/mL | concentration at 0.83 hr [6]: 3070 ng/mL | concentration at 1 hr [3]: 828 ng/mL | concentration at 1 hr [4]: 748 ng/mL | concentration at 1 hr [5]: 807 ng/mL | concentration at 1 hr [6]: 929 ng/mL | concentration at 1.5 hr [3]: 349 ng/mL | concentration at 1.5 hr [4]: 403 ng/mL | concentration at 1.5 hr [5]: 273 ng/mL | concentration at 1.5 hr [6]: 372 ng/mL | concentration at 2 hr [3]: 154 ng/mL | concentration at 2 hr [4]: 180 ng/mL | concentration at 2 hr [5]: 121 ng/mL | concentration at 2 hr [6]: 160 ng/mL | clearance [7]: 10.5 mL/min/kg | clearance [8]: 10.2 mL/min/kg | half-life (iv, Normal Saline, Ex.7, individual rats): 24.1 min | half-life (iv, Normal Saline, Ex.7, mean): 23.8 ± 2.1 min | Vd [7]: 0.276 L/kg | Vd [8]: 0.271 ± 0.01 L/kg | Tmax [7]: 0 h | Tmax [8]: 0 h | concentration at 0.033 hr [7]: 20900 ng/mL | concentration at 0.033 hr [8]: 21400 ng/mL | concentration at 0.083 hr [7]: 11000 ng/mL | concentration at 0.083 hr [8]: 12300 ng/mL | concentration at 0.25 hr [7]: 11000 ng/mL | concentration at 0.25 hr [8]: 10700 ng/mL | concentration at 0.5 hr [7]: 6270 ng/mL | concentration at 0.5 hr [8]: 6070 ng/mL | concentration at 1 hr [7]: 1560 ng/mL | concentration at 1 hr [8]: 1760 ng/mL | concentration at 1.5 hr [7]: 741 ng/mL | concentration at 1.5 hr [8]: 755 ng/mL | concentration at 2 hr [7]: 278 ng/mL | concentration at 2 hr [8]: 310 ng/mL

Reference: patent US20140314857A1, “FORMULATIONS FOR ENHANCED BIOAVAILABILITY OF ZANAMIVIR” (priority 2012, published 2014)
